Source: PMC11876601 (Molecular Systems Biology, 2025)
Where two headings read alike, the source gives them in different places.

Test system: p-sites in DNA-damaged AsPC-1 cells
Test: decryptM dose-resolved phosphoproteomics of ATRi in GEM-pre-treated cells
Format: cell-based, human
Details: for EC50: Homo sapiens, ASPC1; for PTM response (norm. to 1 µM GEM): source data 4B (p-site not named)
Protocol: Cell culture medium was replaced 24 h after seeding. […] For time point 0, AsPC-1 cells were treated with a vehicle and lysed immediately. The final DMSO concentration in all experiments was 0.2%.
Briefly, cells were washed twice with PBS and lysed in SDS lysis buffer (2% SDS in 40 mM Tris-HCl, pH 7.6), followed by sonication for 10 min (30 s on/30 s off) using a Bioruptor (Diagenode). For DNA hydrolysis, samples were boiled at 95 °C for 10 min and incubated with 2% trifluoroacetic acid (TFA) for 1 min, before the reaction was quenched using 4% N-methylmorpholine. Lysate was cleared by centrifugation at 11,000 × g for 5 min and protein concentration was determined using the Pierce BCA Protein Assay Kit (Thermo Scientific).
Using 70% ethanol, samples were then precipitated on beads, followed by washing thrice with 80% ethanol and once with 100% acetonitrile. Subsequently, proteins were reduced and alkylated using 10 mM TCEP, 50 mM chloroacetamide, and 2 mM CaCl2 in 100 mM EPPS/NaOH, pH 8.5 for 1 h at 37 °C, followed by tryptic digestion at 37 °C for 16 h. Peptides were acidified with 1% TFA and desalted on Chromabond HLB plates (30 µm particle size, 10 mg capacity, Machery-Nagel), using 0.1% TFA for equilibration and sample loading, and 0.1% TFA in 70% acetonitrile for peptide elution. Recovered peptides were freeze-dried by vacuum-centrifugation and stored at −20 °C.
Depending on the experiment, samples were either labeled with TMT-11plex (decryptM), TMT-10plex (non-decryptM, quadruplicates), or TMTpro reagent (time-series; all Thermo Scientific). Therefore, dried peptides were reconstituted in 15 µl 100 mM EPPS, pH 8.5 and each treatment condition was labeled with one channel of the respective TMT reagent (5 µl of 25 µg/µl reagent, Appendix Tables S4–S6). The reaction was incubated for 1 h at 23 °C and subsequently quenched with 0.4% hydroxylamine. Then, samples were pooled, acidified with 1% formic acid, and freeze-dried by vacuum-centrifugation. Labeled peptide pools were desalted on C18 Sep-Pak cartridges (37–55 µm particle size, 50 mg capacity, Waters), using 0.1% formic acid as equilibration solvent, and 0.1% formic acid in 60% acetonitrile was used as elution solvent. Eluted peptides were freeze-dried and stored at −20 °C until further use.
Basic reversed-phase (bRP) fractionation of peptides was performed on a Vanquish HPLC (Thermo Scientific). In short, dried peptides were reconstituted in 200 µl 25 mM ammonium bicarbonate, pH 8.0 and directly injected onto a Waters BEH130 XBridge C18 column (3.5 µm, 4.6 × 250 mm). […] Using an automated fraction collector, 96 fractions were collected between min 7 and 55 after injection. Fractions were acidified with 1% formic acid and pooled to 48 fractions, before they were freeze-dried and stored at −20 °C.
Immobilized metal ion affinity chromatography (IMAC) enrichment of phosphorylated peptides was performed on the Bravo automated liquid handling platform using AssayMAP Fe(III)-NTA cartridges (Agilent). In brief, the 48 dried peptide fractions were reconstituted in 0.1% TFA in 80% acetonitrile and further pooled to 12 fractions (200 µl final volume per well). The phosphopeptide enrichment protocol embedded in the Agilent AssayMAP Bravo Protein Sample Prep Workbench v2.0 software was run. Thereby, the cartridges were first primed with 150 μl 0.1% TFA in acetonitrile at 300 μl/min, and equilibrated with 150 μl 0.1% TFA in 80% acetonitrile at 10 μl/min. Then, pooled fractions were loaded at 5 µl/min and further washed three times with 150 μl 0.1% TFA in 80% acetonitrile at 50 μl/min. Enriched peptides were eluted with 60 μl 1% ammonium hydroxide at 5 μl/min.

Structure (SMILES): Nc1nn2cc(F)cnc2c1C(=O)Nc1cncc(F)c1N1CCC(C(=O)N2CCN(C3COC3)CC2)CC1 [Gartisertib]
- Ratio TMT 9 (PTM response normalized to 1,000 nM GEM), AAAS S495 (1,000 nM GEM + 1 nM ATRi): 1.01
- Ratio TMT 8 (PTM response normalized to 1,000 nM GEM), AAAS S495 (1,000 nM GEM + 3 nM ATRi): 1.19
- Ratio TMT 7 (PTM response normalized to 1,000 nM GEM), AAAS S495 (1,000 nM GEM + 10 nM ATRi): 1.10
- Ratio TMT 6 (PTM response normalized to 1,000 nM GEM), AAAS S495 (1,000 nM GEM + 30 nM ATRi): 1.01
- Ratio TMT 5 (PTM response normalized to 1,000 nM GEM), AAAS S495 (1,000 nM GEM + 100 nM ATRi): 0.97
- Ratio TMT 4 (PTM response normalized to 1,000 nM GEM), AAAS S495 (1,000 nM GEM + 300 nM ATRi): 1.12
- Ratio TMT 3 (PTM response normalized to 1,000 nM GEM), AAAS S495 (1,000 nM GEM + 1,000 nM ATRi): 1.11
- Ratio TMT 2 (PTM response normalized to 1,000 nM GEM), AAAS S495 (1,000 nM GEM + 3,000 nM ATRi): 1.00
- Ratio TMT 1 (PTM response normalized to 1,000 nM GEM), AAAS S495 (1,000 nM GEM + 10,000 nM ATRi): 1.09
- Log2 PTM response (GEM+ATRi vs. GEM) (AASDHPPT-pS258): -1.6
- Log2 PTM response (GEM+ATRi vs. GEM) (BRCA1-pS1239): -2
- Log2 PTM response (GEM+ATRi vs. GEM) (BRD8-pS621): -1.6
- Log2 PTM response (GEM+ATRi vs. GEM) (CDKN2AIP-pS198): -1.3
- Log2 PTM response (GEM+ATRi vs. GEM) (CHEK1-pS317): -2.3
- Log2 PTM response (GEM+ATRi vs. GEM) (EXO1-pS714): -1.9
- Log2 PTM response (GEM+ATRi vs. GEM) (FANCD2-pS319): -1
- Log2 PTM response (GEM+ATRi vs. GEM) (HDGF-pS103): -1.6
- Log2 PTM response (GEM+ATRi vs. GEM) (HMGA1-pS9): -2
- Log2 PTM response (GEM+ATRi vs. GEM) (HMGA1-pS36;S44): -0.9
- Log2 PTM response (GEM+ATRi vs. GEM) (HMGA1-pS44): -2.1
- Log2 PTM response (GEM+ATRi vs. GEM) (HTATSF1-pS481): -1.1
- EC50 (approximate, from density plot Fig. 4C (peer review file), read-out: EC50 of the majority of pSQ/pTQ sites): ~10 nM
- EC50 (approximate, from density plot Fig. 4C (peer review file), read-out: pEC50 of the majority of pSQ/pTQ sites (converted)): ~10 nM
- EC50 (p-site dose-response in GEM-pre-treated cells, read-out: EC50, RALY S176): 1.91 nM
- EC50 (p-site dose-response in GEM-pre-treated cells, read-out: pEC50, RALY S176 (converted)): 1.91 nM
- EC50 (read-out: median EC50 across all drug-regulated pSQ/pTQ-sites): 21 nM
- Log2 PTM response (GEM+ATRi vs. GEM) (LRRC42-pS385): -2.5
- Log2 PTM response (GEM+ATRi vs. GEM) (NBN-pS397): -1.3
- Log2 PTM response (GEM+ATRi vs. GEM) (NBN-pS615): -0.8
- Log2 PTM response (GEM+ATRi vs. GEM) (NSUN5-pS432): -2.2
- Log2 PTM response (GEM+ATRi vs. GEM) (PELP1-pS1033): -1
- Log2 PTM response (GEM+ATRi vs. GEM) (PHF14-pS294): -1.2
- Log2 PTM response (GEM+ATRi vs. GEM) (PNISR-pS706): -1.9
- Log2 PTM response (GEM+ATRi vs. GEM) (PPM1G-pS201): -2.3
- Log2 PTM response (GEM+ATRi vs. GEM) (PPP6R3-pS825): -1
- Log2 PTM response (GEM+ATRi vs. GEM) (PSMD4-pS266): -1.2
- Log2 PTM response (GEM+ATRi vs. GEM) (RAD18-pS368): -2.8
- Log2 PTM response (GEM+ATRi vs. GEM) (RIF1-pS1873): -1.4
- Log2 PTM response (GEM+ATRi vs. GEM) (SNRPA-pS115): -1
- Log2 PTM response (GEM+ATRi vs. GEM) (TCEA1-pS100;S97): -2.6
- Log2 PTM response (GEM+ATRi vs. GEM) (TCEB3-pS251): -1.6
- Log2 PTM response (GEM+ATRi vs. GEM) (THAP4-pS186): -1.3
- Log2 PTM response (GEM+ATRi vs. GEM) (TOPBP1-pS1504): -1.4
- Log2 PTM response (GEM+ATRi vs. GEM) (TSEN34-pS136): -1.3
- Log2 PTM response (GEM+ATRi vs. GEM) (UHRF1-pS393): -0.6
- Log2 PTM response (GEM+ATRi vs. GEM) (UIMC1-pS171): -1
- ATRi Regulation (Curve), RALY S176 (classified by CurveCurator): down
- Curve Log2 Fold Change, RALY S176 (fitted dose-response curve): -1.45 log2
- PTM response (norm. to 1 µM GEM) (1 µM GEM + ATRi 1 nM): 1.13
- PTM response (norm. to 1 µM GEM) (1 µM GEM + ATRi 3 nM): 0.97
- PTM response (norm. to 1 µM GEM) (1 µM GEM + ATRi 10 nM): 0.75
- PTM response (norm. to 1 µM GEM) (1 µM GEM + ATRi 30 nM): 0.41
- PTM response (norm. to 1 µM GEM) (1 µM GEM + ATRi 100 nM): 0.29
- PTM response (norm. to 1 µM GEM) (1 µM GEM + ATRi 300 nM): 0.28
- PTM response (norm. to 1 µM GEM) (1 µM GEM + ATRi 1000 nM): 0.21
- PTM response (norm. to 1 µM GEM) (1 µM GEM + ATRi 3000 nM): 0.17
- PTM response (norm. to 1 µM GEM) (1 µM GEM + ATRi 10000 nM): 0.19
